Earlier results, collected in patent US20250345348A1, “AMPK ACTIVATOR (CBDA) AND SGLT2 INHIBITOR FOR METABOLIC HEALTH” (SOCIETE DES PRODUITS NESTLE S.A., priority 2022, published 2025).
Read-outs that look alike come from different tables or passages of the source.

- solubility (in ethanol and hot water): soluble
- solubility (in ether and cold water): poorly soluble
- stability in aqueous solutions (prolonged exposure to aqueous solutions): hydrolyzes to phloretin and glucose
Compound: O=C(CCc1ccc(O)cc1)c1c(O)cc(O)cc1O[C@@H]1O[C@H](CO)[C@@H](O)[C@H](O)[C@H]1O [phlorizin, 1-(2,4-Dihydroxy-6-{[(2S,3R,4S,5S,6R)-3,4,5-trihydroxy-6-(hydroxymethyl)oxan-2-yl]oxy}phenyl)-3-(4-hydroxyphenyl)propan-1-one]
